Key:
[1] = test system: plasmacytoind dendritic cells (PDCs) of human PBMCs; experiment: Intracellular staining and FACS analysis of IFN-α production from PDCs; assay type: cell-based; details: double-staining cells as percentage of total PBMCs, 20 μg/mL oligonucleotide, 100 μg/mL PMXB, six hours
Method: Intracellular staining assays and FACS analysis were used to examine IFN-α production from the plasmacytoind dendritic cells (PDCs) of human PBMCs. […] For these assays, the IMC or -ISS and the polymyxin were added separately to the PBMC cell culture which contained human serum albumin. […] After the six hours, the cells were stained with a fluorescently labeled PDC marker, anti-BCDA-2 labeled with FITC, and with anti-IFN-α labeled with PE. FACS analysis of the labeled cells was performed.

[2] = test system: human peripheral blood lymphocytes (PBMCs); experiment: hPBMC assay: IFN-γ and IFN-α production by human PBMCs (ELISA); assay type: cell-based
[3] = test system: K562 cells; experiment: NK cell lytic activity of stimulated PBMCs against 51Cr-loaded K562 cells; assay type: cell-based, human; details: 10 μg/mL IMC, 100 μg/mL PMXB, 48 hours
Method: IMC particulate formulations were tested for NK cell stimulatory activity. PBMCs from two donors were stimulated for 48 hours with 10 μg/mL IMC (“+ISS”) 5′-[…]-3′ (SEQ ID NO:1) with or without 100 μg/mL PMXB. The PBMCs were then assayed for lytic activity against K562 cells loaded with ^51Cr as target cells. For controls, K562 cells were cultured alone, K562 cells were lysed with Triton and K562 cells were stimulated with untreated PBMC cells. Determination of ^51CR released into culture media was used to measure the extent of target cell lysis. The presence of PMXB increased the NK cell lytic activity stimulated by the IMC alone.

[4] = test system: mouse lung cells; experiment: Gene modulation in mouse lung after intranasal instillation (TAQMAN, relative cycle thresholds; Table 18); assay type: in vivo; design: Relative Cycle Thresholds (CTs), IFN-α2 / Relative Cycle Thresholds (CTs), BCA-1 / Relative Cycle Thresholds (CTs), IP-10 / Relative Cycle Thresholds (CTs), MIP-1b / Relative Cycle Thresholds (CTs), 12/15-lipoxg: reference not given here; details: 6 hours after intranasal instillation
Method: Modulation of a variety of genes in response to immunomodulatory formulations was measured in mouse lung cells.
Particulate formulations were produced by first preparing either a 1 mg/mL +ISS, 0.4% TWEEN® 85, 0.4% oleate solution or a 20 mg/mL HSA solution, then making that solution 5 mg/ml in PMXB. The formulations were allowed to stand for 24 hours at room temperature, then dialyzed using a 10 kDa membrane. Particulate formulations and +ISS alone (50 μL dose) were administered by intranasal instillation to lightly anesthetized mice (5 mice per group). Animals were sacrificed 6 hours after administration, lung tissue was surgically removed, and cell suspensions were made by homogenization of the lung tissue. cDNA was synthesized from RNA isolated from the cell suspensions, and RNA was quantitated using TAQMAN® Technology. The particulate formulations induced significant increases in the majority of the genes tested.

[5] = Donor 198, no Time given, 20 μg/ml oligonucleotide
[6] = Donor 199, no Time given, 20 μg/ml oligonucleotide
[7] = Donor 28212, Controls, 20 μg/ml oligonucleotide, 100 μg/ml polymyxin
[8] = Donor 28213, Controls, 20 μg/ml oligonucleotide, 100 μg/ml polymyxin
[9] = Donor 28232, no Time given, 20 μg/ml oligonucleotide, 100 μg/ml polymyxin
[10] = Donor 28233, no Time given, 20 μg/ml oligonucleotide, 100 μg/ml polymyxin
[11] = Donor # 9, 20 μg/ml oligonucleotide, 100 μg/ml PMXB, 24 hours
[12] = Donor # 37, 20 μg/ml oligonucleotide, 100 μg/ml PMXB, 24 hours
[13] = Donor # 86, 20 μg/ml oligonucleotide, 100 μg/ml PMXB, 24 hours
[14] = Donor # 87, 20 μg/ml oligonucleotide, 100 μg/ml PMXB, 24 hours
[15] = Donor # 88, 20 μg/ml oligonucleotide, 100 μg/ml PMXB, 24 hours
[16] = Donor # 89, 20 μg/ml oligonucleotide, 100 μg/ml PMXB, 24 hours
[17] = Donor # 90, 20 μg/ml oligonucleotide, 100 μg/ml PMXB, 24 hours
[18] = Donor # 91, 20 μg/ml oligonucleotide, 100 μg/ml PMXB, 24 hours
[19] = Donor # 94, 20 μg/ml oligonucleotide, 100 μg/ml PMXB, 24 hours
[20] = Donor # 95, 20 μg/ml oligonucleotide, 100 μg/ml PMXB, 24 hours
[21] = Mean (Table 4), Controls, 20 μg/ml oligonucleotide, 100 μg/ml polymyxin
[22] = Mean (Table 5), no Time given, 20 μg/ml oligonucleotide
[23] = Mean (Table 6), no Time given, 20 μg/ml oligonucleotide, 100 μg/ml polymyxin
[24] = Mean of donors (Table 2), 20 μg/ml oligonucleotide, 100 μg/ml PMXB, 24 hours
[25] = Table 3, Donor 1, PMXB 100 μg/ml, AMTB 10 μg/ml, serum containing medium
[26] = Table 3, Donor 2, PMXB 100 μg/ml, AMTB 10 μg/ml, serum containing medium
[27] = Table 3, Mean, PMXB 100 μg/ml, AMTB 10 μg/ml, serum containing medium
[28] = Table 9, Mean, 20 μg/ml oligonucleotide, 100 μg/ml polymyxin
[29] = Table 9, donor 149, 20 μg/ml oligonucleotide, 100 μg/ml polymyxin
[30] = Table 9, donor 208, 20 μg/ml oligonucleotide, 100 μg/ml polymyxin
[31] = Table 10, donor 1, 20 μg/ml oligonucleotide, 100 μg/ml polymyxin derivative added separately, 24 hours
[32] = Table 10, donor 2, 20 μg/ml oligonucleotide, 100 μg/ml polymyxin derivative added separately, 24 hours
[33] = Table 10, donor 3, 20 μg/ml oligonucleotide, 100 μg/ml polymyxin derivative added separately, 24 hours
[34] = Table 10, donor 4, 20 μg/ml oligonucleotide, 100 μg/ml polymyxin derivative added separately, 24 hours
[35] = Table 10, donor 5, 20 μg/ml oligonucleotide, 100 μg/ml polymyxin derivative added separately, 24 hours
[36] = Table 10, donor 6, 20 μg/ml oligonucleotide, 100 μg/ml polymyxin derivative added separately, 24 hours
[37] = Table 10, mean of 6 donors, 20 μg/ml oligonucleotide, 100 μg/ml polymyxin derivative added separately, 24 hours
[38] = Effector:Target ratio 12.5:1, donor 2

5′-TGACTGTGAACGTTCGAGATGA-3′ [+ISS]
BCDA-2/IFN-α d.p. % ([1]; donor 1): 0.01%
BCDA-2/IFN-α d.p. % ([1]; donor 2): 0.03%
BCDA-2/IFN-α d.p. % ([1]; mean): 0.02%
IFN-α [2, 5]: 224 pg/mL
IFN-γ [2, 5]: 10 pg/mL
IFN-α [2, 6]: 277 pg/mL
IFN-γ [2, 6]: 167 pg/mL
IFN-α [2, 7]: 135 pg/mL
IFN-γ [2, 7]: 5 pg/mL
IFN-α [2, 8]: 109 pg/mL
IFN-γ [2, 8]: 17 pg/mL
IFN-Υ [2, 9]: 276 pg/mL
IFN-α [2, 9]: 9 pg/mL
IFN-Υ [2, 10]: 20 pg/mL
IFN-α [2, 10]: 103 pg/mL
IFN-α [2, 11]: 131 pg/mL
IFN-γ [2, 11]: 20 pg/mL
IFN-γ ([2]; Donor # 20, 20 μg/ml oligonucleotide, 100 μg/ml PMXB, 24 hours): 291 pg/mL
IFN-α [2, 12]: 70 pg/mL
IFN-γ [2, 12]: 15 pg/mL
IFN-γ ([2]; Donor # 75, 20 μg/ml oligonucleotide, 100 μg/ml PMXB, 24 hours): 22 pg/mL
IFN-α [2, 13]: 358 pg/mL
IFN-γ [2, 13]: 182 pg/mL
IFN-α [2, 14]: 212 pg/mL
IFN-γ [2, 14]: 341 pg/mL
IFN-α [2, 15]: 264 pg/mL
IFN-γ [2, 15]: 367 pg/mL
IFN-α [2, 16]: 207 pg/mL
IFN-γ [2, 16]: 100 pg/mL
IFN-α [2, 17]: 119 pg/mL
IFN-γ [2, 17]: 13 pg/mL
IFN-α [2, 18]: 0 pg/mL
IFN-γ [2, 18]: 27 pg/mL
IFN-α [2, 19]: 274 pg/mL
IFN-γ [2, 19]: 30 pg/mL
IFN-α [2, 20]: 26 pg/mL
IFN-γ [2, 20]: 6 pg/mL
IFN-γ ([2]; Donor # 96, 20 μg/ml oligonucleotide, 100 μg/ml PMXB, 24 hours): 49 pg/mL
IFN-γ ([2]; Donor # 97, 20 μg/ml oligonucleotide, 100 μg/ml PMXB, 24 hours): 23 pg/mL
IFN-α [2, 21]: 122 pg/mL
IFN-γ [2, 21]: 11 pg/mL
IFN-α [2, 22]: 250 pg/mL
IFN-γ [2, 22]: 88 pg/mL
IFN-Υ [2, 23]: 148 pg/mL
IFN-α [2, 23]: 56 pg/mL
IFN-α [2, 24]: 166 pg/mL
IFN-γ [2, 24]: 106 pg/mL
IFN-α [2, 25]: 11 pg/mL
IFN-γ [2, 25]: 29 pg/mL
IFN-α [2, 26]: 2 pg/mL
IFN-γ [2, 26]: 0 pg/mL
IFN-α [2, 27]: 6 pg/mL
IFN-γ [2, 27]: 15 pg/mL
IFN-Υ [2, 28]: 76 pg/mL
IFN-α [2, 28]: 41 pg/mL
IFN-Υ [2, 29]: 78 pg/mL
IFN-α [2, 29]: 59 pg/mL
IFN-Υ ([2]; Table 9, donor 206, 20 μg/ml oligonucleotide, 100 μg/ml polymyxin): 5 pg/mL
IFN-Υ [2, 30]: 146 pg/mL
IFN-α [2, 30]: 32 pg/mL
IFN-α ([2]; Table 9, donor 209, 20 μg/ml oligonucleotide, 100 μg/ml polymyxin): 32 pg/mL
IFN-α [2, 31]: 263 pg/mL
IFN-γ [2, 31]: 13 pg/mL
IFN-α [2, 32]: 225 pg/mL
IFN-γ [2, 32]: 3 pg/mL
IFN-α [2, 33]: 52 pg/mL
IFN-γ [2, 33]: 2 pg/mL
IFN-α [2, 34]: 52 pg/mL
IFN-γ [2, 34]: 2 pg/mL
IFN-α [2, 35]: 218 pg/mL
IFN-γ [2, 35]: 99 pg/mL
IFN-α [2, 36]: 26 pg/mL
IFN-γ [2, 36]: 14 pg/mL
IFN-α [2, 37]: 139 pg/mL
IFN-γ [2, 37]: 22 pg/mL
51Cr released from K562 target cells, cpm1 ([3]; Effector:Target ratio 6:1, donor 1): 6935 cpm
51Cr released from K562 target cells, cpm2 [3, 38]: 8370 cpm
51Cr released from K562 target cells, mean [3, 38]: 8162 cpm
51Cr released from K562 target cells, cpm3 ([3]; Effector:Target ratio 25:1, donor 1): 8048 cpm
Relative Cycle Thresholds (CTs), 12/15-lipoxg ([4]; gene 12/15-lipoxg): 65
Relative Cycle Thresholds (CTs), BCA-1 ([4]; gene BCA-1): 5026
Relative Cycle Thresholds (CTs), CD80 ([4]; gene CD80): 205
Relative Cycle Thresholds (CTs), CD86 ([4]; gene CD86): 103
Relative Cycle Thresholds (CTs), COX-1 ([4]; gene COX-1): 2145
Relative Cycle Thresholds (CTs), COX-2 ([4]; gene COX-2): 446
Relative Cycle Thresholds (CTs), Eotaxin ([4]; gene Eotaxin): 273
Relative Cycle Thresholds (CTs), G-CSF ([4]; gene G-CSF): 92
Relative Cycle Thresholds (CTs), IFN-α2 ([4]; gene IFN-α2): 3
Relative Cycle Thresholds (CTs), IFN-γ ([4]; gene IFN-γ): 25
Relative Cycle Thresholds (CTs), IL-1a ([4]; gene IL-1a): 7523
Relative Cycle Thresholds (CTs), IL-1b ([4]; gene IL-1b): 1643
Relative Cycle Thresholds (CTs), IL-6 ([4]; gene IL-6): 755
Relative Cycle Thresholds (CTs), IL-10 ([4]; gene IL-10): 4
Relative Cycle Thresholds (CTs), IL-12p40 ([4]; gene IL-12p40): 6
Relative Cycle Thresholds (CTs), IL-23 ([4]; gene IL-23): 266
Relative Cycle Thresholds (CTs), IP-10 ([4]; gene IP-10): 23436
Relative Cycle Thresholds (CTs), LPTN ([4]; gene LPTN): 976
Relative Cycle Thresholds (CTs), MCP-1 ([4]; gene MCP-1): 5265
Relative Cycle Thresholds (CTs), MCP-3 ([4]; gene MCP-3): 3905
Relative Cycle Thresholds (CTs), MDC ([4]; gene MDC): 2869
Relative Cycle Thresholds (CTs), MIG ([4]; gene MIG): 3411
Relative Cycle Thresholds (CTs), MIP-1a ([4]; gene MIP-1a): 6156
Relative Cycle Thresholds (CTs), MIP-1b ([4]; gene MIP-1b): 12918
Relative Cycle Thresholds (CTs), MIP-2 ([4]; gene MIP-2): 1792
Relative Cycle Thresholds (CTs), MIP-3a ([4]; gene MIP-3a): 885
Relative Cycle Thresholds (CTs), MIP-3b ([4]; gene MIP-3b): 2030
Relative Cycle Thresholds (CTs), MMP-8 ([4]; gene MMP-8): 1505
Relative Cycle Thresholds (CTs), NOS2 ([4]; gene NOS2): 308
Relative Cycle Thresholds (CTs), TARC ([4]; gene TARC): 1505
Relative Cycle Thresholds (CTs), TCA-3 ([4]; gene TCA-3): 16
Relative Cycle Thresholds (CTs), TNF-α ([4]; gene TNF-α): 7170

Reference: patent publication US7884083B2, “Immunomodulatory compositions, methods of making, and methods of use thereof” (Dynavax Technologies Corporation, priority 2002, dated 2011)
